Test results published in publication PMC9492777, “Reaction-based fluorogenic probes for detecting protein cysteine oxidation in living cells” (Nature Communications, 2022).

Biological target: EGFR (epidermal growth factor receptor) (Homo sapiens, UniProt P00533)
Test: labelling in transfected HeLa cells, immunoprecipitation, in-gel fluorescence
Assay type: cell-based
Conditions: covalent, at Cys797 sulfenic acid; 50 uM probe, 500 uM H2O2, 1 h, 37 °C

EGFR (epidermal growth factor receptor), sequence (P00533 25-1210): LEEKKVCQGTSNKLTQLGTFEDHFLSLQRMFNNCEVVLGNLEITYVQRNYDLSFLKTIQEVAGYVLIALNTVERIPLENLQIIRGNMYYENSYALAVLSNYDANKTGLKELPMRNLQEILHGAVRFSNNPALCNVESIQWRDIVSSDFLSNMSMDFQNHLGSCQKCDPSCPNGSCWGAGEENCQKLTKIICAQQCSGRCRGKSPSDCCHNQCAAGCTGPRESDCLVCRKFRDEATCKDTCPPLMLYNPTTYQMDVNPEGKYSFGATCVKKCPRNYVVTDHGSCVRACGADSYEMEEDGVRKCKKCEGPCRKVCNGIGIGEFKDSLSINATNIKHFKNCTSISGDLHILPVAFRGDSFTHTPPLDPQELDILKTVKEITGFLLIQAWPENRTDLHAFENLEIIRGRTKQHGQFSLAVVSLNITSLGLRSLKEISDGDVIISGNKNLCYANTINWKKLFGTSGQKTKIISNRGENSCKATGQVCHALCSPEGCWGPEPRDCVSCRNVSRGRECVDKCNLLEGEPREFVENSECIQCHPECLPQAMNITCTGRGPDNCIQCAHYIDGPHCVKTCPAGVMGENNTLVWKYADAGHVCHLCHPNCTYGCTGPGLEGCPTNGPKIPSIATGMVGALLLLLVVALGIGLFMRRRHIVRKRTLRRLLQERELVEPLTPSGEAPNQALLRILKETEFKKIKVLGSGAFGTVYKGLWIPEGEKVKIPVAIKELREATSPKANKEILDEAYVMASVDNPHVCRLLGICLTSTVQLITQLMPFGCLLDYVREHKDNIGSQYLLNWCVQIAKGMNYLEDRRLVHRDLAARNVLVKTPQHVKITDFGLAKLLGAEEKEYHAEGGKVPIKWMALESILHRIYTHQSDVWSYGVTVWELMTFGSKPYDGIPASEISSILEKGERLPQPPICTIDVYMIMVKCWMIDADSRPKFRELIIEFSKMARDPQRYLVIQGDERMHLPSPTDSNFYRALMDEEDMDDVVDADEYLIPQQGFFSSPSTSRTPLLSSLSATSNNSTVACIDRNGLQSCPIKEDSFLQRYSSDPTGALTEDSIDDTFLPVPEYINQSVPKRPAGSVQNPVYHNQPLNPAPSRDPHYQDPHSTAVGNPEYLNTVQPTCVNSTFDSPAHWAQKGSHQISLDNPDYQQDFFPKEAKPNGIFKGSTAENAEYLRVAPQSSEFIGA

| SMILES | labelling in transfected HeLa cells, immunoprecipitation, in-gel fluorescence |
| --- | --- |
| Nc1c(F)cc2c3c(cccc13)C(=O)CS2(=O)=O [compound 7, CysOx1] | Wild-type EGFR exhibited detectable fluorescence signal from CysOx1 or CysOx2 |
| O=C1CS(=O)(=O)c2cc(F)c(N3CCC3)c3cccc1c23 [compound 8, CysOx2] | Wild-type EGFR exhibited detectable fluorescence signal from CysOx1 or CysOx2 |
